Common to all, as to test: competitive isoTOP-ABPP
Holding throughout (type): binding

Assay [1] deals with T1, PFKL 6-phosphofructokinase, liver type (Homo sapiens, UniProt P17858).
T1 construct: isoTOP-ABPP experiments performed in cell lysates (in vitro); endogenous in cells; host or cells: soluble proteome of human cancer cell lines (MDA-MB-231; Ramos and Jurkat also prepared)
T1 sequence (P17858 1-780): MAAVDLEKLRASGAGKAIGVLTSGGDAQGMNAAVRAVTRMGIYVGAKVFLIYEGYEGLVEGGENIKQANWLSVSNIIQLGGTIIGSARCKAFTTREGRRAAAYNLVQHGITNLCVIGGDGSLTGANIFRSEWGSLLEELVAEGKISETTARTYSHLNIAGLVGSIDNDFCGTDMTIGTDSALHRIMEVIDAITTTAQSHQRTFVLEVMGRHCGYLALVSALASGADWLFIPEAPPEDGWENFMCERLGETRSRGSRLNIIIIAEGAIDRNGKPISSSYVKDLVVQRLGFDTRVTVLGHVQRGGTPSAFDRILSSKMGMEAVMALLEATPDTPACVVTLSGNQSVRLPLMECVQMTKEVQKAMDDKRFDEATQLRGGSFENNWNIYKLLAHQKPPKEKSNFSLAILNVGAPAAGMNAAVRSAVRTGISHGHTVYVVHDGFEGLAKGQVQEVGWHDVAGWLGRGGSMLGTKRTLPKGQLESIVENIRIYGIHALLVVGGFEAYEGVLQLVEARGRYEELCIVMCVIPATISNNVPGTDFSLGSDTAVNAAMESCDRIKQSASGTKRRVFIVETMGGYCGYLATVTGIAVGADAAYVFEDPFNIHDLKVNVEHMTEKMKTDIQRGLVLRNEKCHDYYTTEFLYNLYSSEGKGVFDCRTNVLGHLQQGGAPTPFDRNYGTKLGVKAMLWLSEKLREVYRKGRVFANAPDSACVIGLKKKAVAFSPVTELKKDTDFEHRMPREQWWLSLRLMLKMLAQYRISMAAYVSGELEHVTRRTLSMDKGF
Conditions: for isoTOP-ABPP ratio, lysine P17858_K677: possible other lysine P17858_K681; for isoTOP-ABPP ratio, lysine P17858_K715: possible other lysine P17858_K714. An outline of the steps: (§1)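 Competition format: fragment (50 μM activated ester, 100 μM guanidinylating agent) versus vehicle in lysate, then lysine probe STP-alkyne at 0.1 mM for 1 h. Quantitation by light/heavy TEV-tag MS1 peak areas, reported as R.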

Assay [2] addresses T2, FECH Ferrochelatase, mitochondrial (Homo sapiens, UniProt P22830).
T2 construct: isoTOP-ABPP experiments performed in cell lysates (in vitro); endogenous in cells; host or cells: soluble proteome of human cancer cell lines (MDA-MB-231; Ramos and Jurkat also prepared)
T2 sequence (P22830 55-423): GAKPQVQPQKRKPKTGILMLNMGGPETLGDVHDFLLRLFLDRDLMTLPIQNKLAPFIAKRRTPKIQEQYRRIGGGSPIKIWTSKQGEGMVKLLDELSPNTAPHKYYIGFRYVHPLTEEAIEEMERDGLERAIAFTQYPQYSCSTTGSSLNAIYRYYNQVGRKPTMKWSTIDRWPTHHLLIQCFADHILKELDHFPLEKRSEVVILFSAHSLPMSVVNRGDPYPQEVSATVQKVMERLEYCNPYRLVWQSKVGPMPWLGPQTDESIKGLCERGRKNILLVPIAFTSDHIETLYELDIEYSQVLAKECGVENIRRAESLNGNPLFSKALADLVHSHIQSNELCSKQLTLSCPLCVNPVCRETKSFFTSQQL
An outline of the steps: as §1

Assay [3] addresses T3, G6PD Glucose-6-phosphate 1-dehydrogenase (Homo sapiens, UniProt P11413).
T3 construct: isoTOP-ABPP experiments performed in cell lysates (in vitro); endogenous in cells; host or cells: MDA-MB-231 soluble lysate
An outline of the steps:
as §1

The target in a further assay is T4, OLA1 Obg-like ATPase 1 (Homo sapiens, UniProt Q9NTK5).
T4 construct: endogenous in cells; host or cells: MDA-MB-231 (soluble fraction of lysate)
An outline of the steps: as §1

T3 sequence (P11413 whole entry): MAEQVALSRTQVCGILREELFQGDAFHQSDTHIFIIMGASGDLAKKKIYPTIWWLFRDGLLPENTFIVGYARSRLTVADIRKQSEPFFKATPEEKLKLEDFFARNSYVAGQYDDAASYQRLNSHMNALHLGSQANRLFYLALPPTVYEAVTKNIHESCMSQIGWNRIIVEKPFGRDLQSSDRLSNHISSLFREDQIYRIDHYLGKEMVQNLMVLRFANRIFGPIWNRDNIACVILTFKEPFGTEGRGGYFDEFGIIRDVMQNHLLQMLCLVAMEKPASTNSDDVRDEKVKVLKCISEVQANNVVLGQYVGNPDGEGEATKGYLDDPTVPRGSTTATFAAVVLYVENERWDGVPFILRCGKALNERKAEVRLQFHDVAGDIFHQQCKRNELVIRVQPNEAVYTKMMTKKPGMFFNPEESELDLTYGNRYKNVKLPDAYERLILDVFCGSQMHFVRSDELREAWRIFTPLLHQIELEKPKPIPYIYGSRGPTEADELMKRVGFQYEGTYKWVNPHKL

Turning to `O=C(Oc1c(F)c(F)cc(F)c1F)c1cc(C(F)(F)F)cc(C(F)(F)F)c1` [fragment 48, 2,3,5,6-Tetrafluorophenyl 3,5-bis(trifluoromethyl)benzoate], in assay [1] (50 uM_231_sol_in vitro), the “isoTOP-ABPP ratio, lysine P17858_K315” value is on record as 0.7; the “isoTOP-ABPP ratio, lysine P17858_K677” value stood at 0.9; the “isoTOP-ABPP ratio, lysine P17858_K715” value is 1.0. The “isoTOP-ABPP ratio, lysine P22830_K304” value in assay [2] (50 uM_231_sol_in vitro) is given as 1.1. The “isoTOP-ABPP ratio, lysine P11413_K171” value in assay [3] (50 uM_231_sol_in vitro) worked out at 0.9. The “isoTOP-ABPP ratio, lysine Q9NTK5_K248” value on OLA1 Obg-like ATPase 1 (50 uM_231_sol_in vitro) is on record as 1.0.

With `COC(=O)NC(=NC(=O)OCC1c2ccccc2-c2ccccc21)n1cccn1` [fragment 49, N-Methoxycarbonyl-N′-9-fluorenylmethoxycarbonyl-pyrazole-1-carboxamidine], the “isoTOP-ABPP ratio, lysine P17858_K715” value in assay [1] (100 uM_231_sol_in vitro) amounted to 1.8. In addition, the “isoTOP-ABPP ratio, lysine P22830_K304” value in assay [2] (100 uM_231_sol_in vitro) is reported as 5.3. Also, the “isoTOP-ABPP ratio, lysine P11413_K171” value in assay [3] (100 uM_231_sol_in vitro) was 1.2. In addition, the “isoTOP-ABPP ratio, lysine Q9NTK5_K248” value on OLA1 Obg-like ATPase 1 (100 uM_231_sol_in vitro) is listed as 7.0.

Turning to `CC(C)(C)OC(=O)N=C(NC(=O)OC(C)(C)C)n1cccn1` [fragment 50, reference compound], in assay [1] (100 uM_231_sol_in vitro), the “isoTOP-ABPP ratio, lysine P17858_K677” value stood at 20.0 and the “isoTOP-ABPP ratio, lysine P17858_K715” value was found to be 2.9. The “isoTOP-ABPP ratio, lysine P22830_K304” value in assay [2] (100 uM_231_sol_in vitro) is on record as 2.3. For the same compound, the “isoTOP-ABPP ratio, lysine P11413_K171” value in assay [3] (100 uM_231_sol_in vitro) is 1.1. The “isoTOP-ABPP ratio, lysine Q9NTK5_K248” value at OLA1 Obg-like ATPase 1 (100 uM_231_sol_in vitro) worked out at 2.1.

`NC(=O)c1cc(C(F)(F)F)cc(C(F)(F)F)c1` [fragment 51, reference compound]: in assay [1] (50 uM_231_sol_in vitro), the “isoTOP-ABPP ratio, lysine P17858_K677” value came out at 0.9 and the “isoTOP-ABPP ratio, lysine P17858_K715” value amounted to 0.9. Moreover, the “isoTOP-ABPP ratio, lysine P22830_K304” value in assay [2] (50 uM_231_sol_in vitro) is reported as 0.8. In addition, the “isoTOP-ABPP ratio, lysine P11413_K171” value in assay [3] (50 uM_231_sol_in vitro) is 0.9. Besides, the “isoTOP-ABPP ratio, lysine Q9NTK5_K248” value at OLA1 Obg-like ATPase 1 (50 uM_231_sol_in vitro) was 0.9.
